Test results from patent US20100285959A1, “HERBICIDAL MIXTURES” (priority 2006, published 2010).

What was measured:
jimsonweed (DATST) = test: Test 8 field trial, preemergence; assay type: in vivo, Datura stramonium
Text: (§1) Corn seeds (hybrid ‘Pioneer 31G96’) were planted in mid spring season, 3.8 cm deep in a clay loam soil having 2% organic matter and a pH of 6.6. Plots were 6.1 m long by 3.0 m wide with rows spaced 76 cm apart. Seeds were spaced 15 cm apart within the rows. The field was managed using conventional tillage practices. […] A few of the weed species could not be evaluated at every timing. […] Results are the means of the three replicates.

arrowleaf sida (SIDRH) = test: Test 11 field trial, preemergence; assay type: in vivo, Sida rhombifolia
Text: (§2) Corn seeds (hybrid ‘Pioneer 3041’) were planted in mid spring season, 5 cm deep in a clay soil having 2.6% organic matter and a pH of 5.6. Plots were 8 m long by 1.5 m wide with rows spaced 80 cm apart. Seeds were spaced 15 cm apart within the rows. The field was managed using conventional tillage practices. […] Treatments consisted of Compound 2 or
(§3) Goosegrass was not evaluated 16 or 91 days after application.

common ragweed (AMBEL) [1] = test: Test 8 field trial, preemergence; assay type: in vivo, Ambrosia artemisiifolia
Text: as §1

shepherd's purse (CAPBP) = test: Test 5 field trial, postemergence; assay type: in vivo, Capsella bursa-pastoris
Text: (§4) Corn seeds (hybrid ‘Pioneer 38H69’) were planted in mid spring season, 5.1 cm deep in a silty clay loam soil having 3% organic matter and a pH of 6.5. Plots were 9.1 m long by 3.0 m wide with rows spaced 76 cm apart. The field was managed using conventional tillage practices. […] All treatments included a surfactant except glufosinate treatments, both alone and in combination. […] Results are summarized in Table 5 and are the means of the three replicates.

[2] = test system: ivyleaf morningglory (IPOHE); test: Test 8 field trial, preemergence; assay type: in vivo, Ipomoea hederacea
Text: as §1

[3] = test system: common lambsquarters (CHEAL); test: Test 5 field trial, postemergence; assay type: in vivo, Chenopodium album
Text: as §4

giant foxtail (SETFA) [4] = test: Test 6 field trial, postemergence; assay type: in vivo, Setaria faberi
Text: Corn seeds (hybrid ‘Pioneer 35Y62’) were planted in mid spring season, 3.8 cm deep in a silt loam soil having 4% organic matter and a pH of 5.8. Plots were 10.7 m long by 1.5 m wide with rows spaced 76 cm apart. Seeds were spaced 18 cm apart within the rows. The field was managed using conventional tillage practices. […] All treatments included a surfactant except glufosinate treatments, both alone and in combination. […] Results are summarized in Table 6 and are the means of the three replicates.

common blackjack (BIDPI) = test: Test 11 field trial, preemergence; assay type: in vivo, Bidens pilosa; design: scale not given here; conditions: alone or + atrazine 1500 or metolachlor 2500
Text: as §2, §3

giant foxtail (SETFA) [5] = test: Test 5 field trial, postemergence; assay type: in vivo, Setaria faberi
Text: as §4

[6] = test system: common lambsquarters (CHEAL); test: Test 8 field trial, preemergence; assay type: in vivo, Chenopodium album
Text: as §1

common ragweed (AMBEL) [7] = test: Test 10 field trial, preemergence; assay type: in vivo, Ambrosia artemisiifolia; conditions: 28 DAA
Text: (§5) Corn seeds (hybrid ‘Pioneer 33P65 RR’) were planted in mid spring season, 2.5 cm deep in a silt loam soil. Plots were 9.1 m long by 3.0 m wide with rows spaced 76 cm apart. The field was managed using conventional tillage practices. […] Results are the means of the three replicates.

velvetleaf (ABUTH) [8] = test: Test 10 field trial, preemergence; assay type: in vivo, Abutilon theophrasti; conditions: 28 DAA
Text: as §5

redroot pigweed (AMARE) = test: Test 1 field trial, preemergence; assay type: in vivo, Amaranthus retroflexus
Text: Corn seeds (hybrid ‘Pioneer 34N43’) were planted in mid spring season, 3.8 cm deep in a silt loam soil having 4.6% organic matter and a pH of 6. Plots were 10.7 m long by 1.5 m wide with rows spaced 76 cm apart. Seeds were spaced 18 cm apart within the rows. The field was managed using conventional tillage practices. […] Results are summarized in Table 1 and are the means of the three replicates. […] Colby's Equation (Colby, S. R. “Calculating Synergistic and Antagonistic Responses of Herbicide Combinations,” Weeds, 15(1), pp 20-22 (1967)) calculates the expected additive effect of herbicidal mixtures, and for two active ingredients is of the form:
Pa+b=Pa+Pb−(PaPb/100) • wherein Pa+b is the percentage effect of the mixture expected from additive contribution of the individual components, • Pa is the observed percentage effect of the first active ingredient at the same use rate as in the mixture, and • Pb is the observed percentage effect of the second active ingredient at the same use rate as in the mixture.

velvetleaf (ABUTH) [9] = test: Test 5 field trial, postemergence; assay type: in vivo, Abutilon theophrasti
Text: as §4

[10] = 19 DAA, g a.i./ha: Cpd 2 50, S-Metolachlor 1870
[11] = 19 DAA, g a.i./ha: Cpd 2 100, Atrazine 1680, S-Metolachlor 1870
[12] = 19 DAA, g a.i./ha: Cpd 2 150, S-Metolachlor 1870
[13] = 29 DAA, g a.i./ha: Cpd 2 50, S-Metolachlor 1870
[14] = 29 DAA, g a.i./ha: Cpd 2 100, Atrazine 1680, S-Metolachlor 1870
[15] = 29 DAA, g a.i./ha: Cpd 2 150, S-Metolachlor 1870
[16] = 56 DAA, g a.i./ha: Cpd 2 50, S-Metolachlor 1870
[17] = 56 DAA, g a.i./ha: Cpd 2 100, Atrazine 1680, S-Metolachlor 1870
[18] = 56 DAA, g a.i./ha: Cpd 2 150, S-Metolachlor 1870
[19] = 16 DAA, Cpd 2 30 g a.i./ha alone or with glufosinate 470 or glyphosate 1120
[20] = 16 DAA, Cpd 2 60 g a.i./ha alone or with atrazine 1120, glufosinate 470 or glyphosate 1120
[21] = 31 DAA, Cpd 2 30 g a.i./ha alone or with glufosinate 470 or glyphosate 1120
[22] = 31 DAA, Cpd 2 60 g a.i./ha alone or with atrazine 1120, glufosinate 470 or glyphosate 1120
[23] = g a.i./ha: Cpd 2 50, S-Metolachlor 1870
[24] = g a.i./ha: Cpd 2 100, Atrazine 1680, S-Metolachlor 1870
[25] = g a.i./ha: Cpd 2 150, S-Metolachlor 1870

COC(=O)c1nc(C2CC2)nc(N)c1Cl [Compound 2, methyl 6-amino-5-chloro-2-cyclopropyl-4-pyrimidinecarboxylate]
DATST Obs (jimsonweed (DATST); [10]): 33%
DATST Obs (jimsonweed (DATST); [11]): 52%
DATST Obs (jimsonweed (DATST); [12]): 65%
DATST Obs (jimsonweed (DATST); [13]): 45%
DATST Obs (jimsonweed (DATST); [14]): 63%
DATST Obs (jimsonweed (DATST); [15]): 85%
DATST Obs (jimsonweed (DATST); [16]): 65%
DATST Obs (jimsonweed (DATST); [17]): 90%
DATST Obs (jimsonweed (DATST); [18]): 100%
SIDRH Obs (arrowleaf sida (SIDRH); 16 DAA, Cpd 2/Cpd 1 at 62 g a.i./ha, alone or + atrazine 1500 or metolachlor 2500): 20
SIDRH Obs (arrowleaf sida (SIDRH); 16 DAA, Cpd 2/Cpd 1 at 125 g a.i./ha, alone or + atrazine 1500 or metolachlor 2500): 40
SIDRH Obs (arrowleaf sida (SIDRH); 30 DAA, Cpd 2/Cpd 1 at 62 g a.i./ha, alone or + atrazine 1500 or metolachlor 2500): 40
SIDRH Obs (arrowleaf sida (SIDRH); 30 DAA, Cpd 2/Cpd 1 at 125 g a.i./ha, alone or + atrazine 1500 or metolachlor 2500): 70
SIDRH Obs (arrowleaf sida (SIDRH); 44 DAA, Cpd 2/Cpd 1 at 62 g a.i./ha, alone or + atrazine 1500 or metolachlor 2500): 40
SIDRH Obs (arrowleaf sida (SIDRH); 44 DAA, Cpd 2/Cpd 1 at 125 g a.i./ha, alone or + atrazine 1500 or metolachlor 2500): 75
SIDRH Obs (arrowleaf sida (SIDRH); 62 DAA, 62 g a.i./ha, scale 0 to 100): 0
SIDRH Obs (arrowleaf sida (SIDRH); 62 DAA, 125 g a.i./ha, scale 0 to 100): 40
SIDRH Obs (arrowleaf sida (SIDRH); 91 DAA, 62 g a.i./ha, scale 0 to 100): 0
SIDRH Obs (arrowleaf sida (SIDRH); 91 DAA, 125 g a.i./ha, scale 0 to 100): 40
AMBEL Obs (common ragweed (AMBEL) [1]; [10]): 36%
AMBEL Obs (common ragweed (AMBEL) [1]; [11]): 73%
AMBEL Obs (common ragweed (AMBEL) [1]; [12]): 83%
AMBEL Obs (common ragweed (AMBEL) [1]; [13]): 65%
AMBEL Obs (common ragweed (AMBEL) [1]; [14]): 88%
AMBEL Obs (common ragweed (AMBEL) [1]; [15]): 96%
AMBEL Obs (common ragweed (AMBEL) [1]; [16]): 52%
AMBEL Obs (common ragweed (AMBEL) [1]; [17]): 90%
AMBEL Obs (common ragweed (AMBEL) [1]; [18]): 97%
CAPBP Obs (shepherd's purse (CAPBP); [19]): 25%
CAPBP Obs (shepherd's purse (CAPBP); [20]): 28%
CAPBP Obs (shepherd's purse (CAPBP); [21]): 0%
CAPBP Obs (shepherd's purse (CAPBP); [22]): 2%
IPOHE Obs [2, 10]: 58%
IPOHE Obs [2, 11]: 78%
IPOHE Obs [2, 12]: 83%
IPOHE Obs [2, 13]: 72%
IPOHE Obs [2, 14]: 97%
IPOHE Obs [2, 15]: 96%
IPOHE Obs [2, 16]: 82%
IPOHE Obs [2, 17]: 100%
IPOHE Obs [2, 18]: 100%
CHEAL Obs [3, 19]: 83%
CHEAL Obs [3, 20]: 87%
CHEAL Obs [3, 21]: 82%
CHEAL Obs [3, 22]: 99%
SETFA Obs (giant foxtail (SETFA) [4]; 14 DAA, 30 g a.i./ha): 0%
SETFA Obs (giant foxtail (SETFA) [4]; 14 DAA, 60 g a.i./ha): 0%
SETFA Obs (giant foxtail (SETFA) [4]; 28 DAA, 30 g a.i./ha): 0%
SETFA Obs (giant foxtail (SETFA) [4]; 28 DAA, 60 g a.i./ha): 0%
BIDPI Obs (common blackjack (BIDPI); 16 DAA, Cpd 2/Cpd 1 at 62 g a.i./ha): 20
BIDPI Obs (common blackjack (BIDPI); 16 DAA, Cpd 2/Cpd 1 at 125 g a.i./ha): 60
BIDPI Obs (common blackjack (BIDPI); 30 DAA, Cpd 2/Cpd 1 at 62 g a.i./ha): 20
BIDPI Obs (common blackjack (BIDPI); 30 DAA, Cpd 2/Cpd 1 at 125 g a.i./ha): 40
BIDPI Obs (common blackjack (BIDPI); 44 DAA, Cpd 2/Cpd 1 at 62 g a.i./ha): 20
BIDPI Obs (common blackjack (BIDPI); 44 DAA, Cpd 2/Cpd 1 at 125 g a.i./ha): 60
BIDPI Obs (common blackjack (BIDPI); 62 DAA, Cpd 2/Cpd 1 at 62 g a.i./ha): 0
BIDPI Obs (common blackjack (BIDPI); 62 DAA, Cpd 2/Cpd 1 at 125 g a.i./ha): 40
BIDPI Obs (common blackjack (BIDPI); 91 DAA, Cpd 2/Cpd 1 at 62 g a.i./ha): 0
BIDPI Obs (common blackjack (BIDPI); 91 DAA, Cpd 2/Cpd 1 at 125 g a.i./ha): 40
SETFA Obs (giant foxtail (SETFA) [5]; [19]): 0%
SETFA Obs (giant foxtail (SETFA) [5]; [20]): 0%
SETFA Obs (giant foxtail (SETFA) [5]; [21]): 0%
SETFA Obs (giant foxtail (SETFA) [5]; [22]): 2%
CHEAL Obs [6, 10]: 75%
CHEAL Obs [6, 11]: 100%
CHEAL Obs [6, 12]: 100%
CHEAL Obs [6, 16]: 68%
CHEAL Obs [6, 17]: 100%
CHEAL Obs [6, 18]: 100%
AMBEL Obs (common ragweed (AMBEL) [7]; [23]): 5%
AMBEL Obs (common ragweed (AMBEL) [7]; [24]): 5%
AMBEL Obs (common ragweed (AMBEL) [7]; [25]): 20%
ABUTH Obs (velvetleaf (ABUTH) [8]; [23]): 7%
ABUTH Obs (velvetleaf (ABUTH) [8]; [24]): 7%
ABUTH Obs (velvetleaf (ABUTH) [8]; [25]): 13%
AMARE Obs (redroot pigweed (AMARE); 28 DAA, g a.i./ha: Cpd 2 50, S-Metolachlor 1870): 0
AMARE Obs (redroot pigweed (AMARE); 28 DAA, g a.i./ha: Cpd 2 100, Atrazine 1680, S-Metolachlor 1870): 7
AMARE Obs (redroot pigweed (AMARE); 28 DAA, g a.i./ha: Cpd 2 150, S-Metolachlor 1870): 58
AMARE Obs (redroot pigweed (AMARE); [16]): 7
AMARE Obs (redroot pigweed (AMARE); [17]): 55
AMARE Obs (redroot pigweed (AMARE); [18]): 100
ABUTH Obs (velvetleaf (ABUTH) [9]; [19]): 76%
ABUTH Obs (velvetleaf (ABUTH) [9]; [20]): 81%
ABUTH Obs (velvetleaf (ABUTH) [9]; [21]): 77%
ABUTH Obs (velvetleaf (ABUTH) [9]; [22]): 82%
